According to ChEMBL document CHEMBL1201862, “PubChem BioAssay data set” (2004):
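In this assay, cells in 96-well plates receive the compound at five concentrations for 48 hours. Endpoints are linearly interpolated between the surrounding concentrations. GI50 = concentration required for 50% inhibition of growth.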 Active and inactive are the calls of the source. Rule as the data show it: active = GI50 up to about 1.1 µM and inactive = higher.

What was measured:
Assay in all cases: NCI tumour cell line growth inhibition, 48 h
[1] = system: BT-549
[2] = system: COLO 205
[3] = system: DU-145
[4] = system: HCC 2998
[5] = system: HL-60
[6] = system: HOP-62
[7] = system: M14
[8] = system: MCF7
[9] = system: MDA-MB-231
[10] = system: MDA-MB-435
[11] = system: MDA-N
[12] = system: Malme-3M
[13] = system: NCI-H226
[14] = system: OVCAR-8
[15] = system: PC-3
[16] = system: RXF 393
[17] = system: SF-268
[18] = system: SN12C
[19] = system: UO-31
[20] = system: SF-539

| SMILES | GI50 [1] | GI50 [2] | GI50 [3] | GI50 [4] | GI50 [5] | GI50 [6] | GI50 [7] | GI50 [8] | GI50 [9] | GI50 [10] | GI50 [11] | GI50 [12] | GI50 [13] | GI50 [14] | GI50 [15] | GI50 [16] | GI50 [17] | GI50 [18] | GI50 [19] | GI50 [20] |
| --- | --- | --- | --- | --- | --- | --- | --- | --- | --- | --- | --- | --- | --- | --- | --- | --- | --- | --- | --- | --- |
| CC12CCC(C1)C(C)(C)C2OC(=O)c1ccccc1C(=O)O (centres undefined) | > 100 µM (inactive) | > 100 µM (inactive) | > 100 µM (inactive) | > 100 µM (inactive) | > 100 µM (inactive) | 34.7 µM (inactive) | > 100 µM (inactive) | > 100 µM (inactive) | > 100 µM (inactive) | > 100 µM (inactive) | > 100 µM (inactive) | > 100 µM (inactive) | > 100 µM (inactive) | > 100 µM (inactive) | > 100 µM (inactive) | > 100 µM (inactive) | > 100 µM (inactive) | > 100 µM (inactive) | > 100 µM (inactive) | – |
| COc1ccc(OC)c(NCC(=O)Nn2cnc3ccc(S(=O)(=O)Nc4cc(OC)ccc4OC)cc3c2=O)c1 | > 100 µM (inactive) | > 100 µM (inactive) | > 100 µM (inactive) | 37.2 µM (inactive) | 16.2 µM (inactive) | > 100 µM (inactive) | > 100 µM (inactive) | > 100 µM (inactive) | > 100 µM (inactive) | 29.5 µM (inactive) | 41.3 µM (inactive) | > 100 µM (inactive) | > 100 µM (inactive) | > 100 µM (inactive) | 37.5 µM (inactive) | – | > 100 µM (inactive) | > 100 µM (inactive) | 75.7 µM (inactive) | > 100 µM (inactive) |
| CC[C@@H]1/C=C/C=C/C[C@H](C)[C@@H](O)[C@](C)(O)C(=O)[C@H](C)[C@@H](O)[C@H](C)C(=O)[C@H](C)[C@@H](O)[C@H](C)/C=C/C(=O)O[C@H]2[C@@H](C)[C@@H](CC1)O[C@@]1(CC[C@@H](C)[C@@H](CC(C)O)O1)[C@@H]2C (some centres undefined) | 1.52 µM (inactive) | < 0.01 µM (active) | 1.88 µM (inactive) | 1.52 µM (inactive) | < 0.01 µM (active) | – | 1.24 µM (inactive) | < 0.01 µM (active) | 1.83 µM (inactive) | 1.52 µM (inactive) | 1.61 µM (inactive) | 3.49 µM (inactive) | – | < 0.01 µM (active) | < 0.01 µM (active) | 1.68 µM (inactive) | 2.7 µM (inactive) | 1.72 µM (inactive) | 0.0307 µM (active) | 3.58 µM (inactive) |
| CC(=O)c1cc(S(=O)(=O)c2ccc(O)c(C(C)=O)c2)ccc1O | 23.5 µM (inactive) | > 100 µM (inactive) | > 100 µM (inactive) | 58.2 µM (inactive) | – | > 100 µM (inactive) | 67.9 µM (inactive) | 67.6 µM (inactive) | > 100 µM (inactive) | 51.3 µM (inactive) | > 100 µM (inactive) | > 100 µM (inactive) | > 100 µM (inactive) | 70 µM (inactive) | 75.5 µM (inactive) | 71.4 µM (inactive) | 55.6 µM (inactive) | > 100 µM (inactive) | 28.4 µM (inactive) | 30.2 µM (inactive) |
| CC1=CCC(=O)[C@]2(C)C(CC(=O)O)[C@]3(C)C4=C(C)C(c5ccoc5)C[C@@H]4O[C@@H]3[C@H](O)[C@@H]12 (some centres undefined) | > 100 µM (inactive) | > 100 µM (inactive) | > 100 µM (inactive) | > 100 µM (inactive) | > 100 µM (inactive) | – | > 100 µM (inactive) | > 100 µM (inactive) | > 100 µM (inactive) | > 100 µM (inactive) | > 100 µM (inactive) | > 100 µM (inactive) | – | > 100 µM (inactive) | > 100 µM (inactive) | – | > 100 µM (inactive) | > 100 µM (inactive) | > 100 µM (inactive) | > 100 µM (inactive) |
| COc1cc(/C=C2\N=C(c3ccccc3)N(c3nc4ccc(Sc5ccccc5)cc4[nH]3)C2=O)cc(OC)c1OC | 20.8 µM (inactive) | 18.9 µM (inactive) | 21.8 µM (inactive) | 16.5 µM (inactive) | 14.7 µM (inactive) | 31.5 µM (inactive) | 19.3 µM (inactive) | 17.8 µM (inactive) | 20.6 µM (inactive) | 5.19 µM (inactive) | 4.76 µM (inactive) | 16.9 µM (inactive) | – | 32.7 µM (inactive) | 26.9 µM (inactive) | 22.1 µM (inactive) | 26.2 µM (inactive) | 27.9 µM (inactive) | 34.4 µM (inactive) | – |
| COC(=O)C(CC(C)C)NC(=O)C(NC(=O)c1ccc(-c2ccc(Cl)cc2Cl)o1)C(C)C (centres undefined) | 30 µM (inactive) | 17.7 µM (inactive) | 21.8 µM (inactive) | 17.3 µM (inactive) | 6.56 µM (inactive) | 21.4 µM (inactive) | 24 µM (inactive) | 16.5 µM (inactive) | 13.8 µM (inactive) | 22.1 µM (inactive) | 20.2 µM (inactive) | – | 32.4 µM (inactive) | 28.2 µM (inactive) | 14.1 µM (inactive) | 14.8 µM (inactive) | 22 µM (inactive) | 18 µM (inactive) | 29 µM (inactive) | 29.2 µM (inactive) |
